Columns and labels:
Format in all cases: cell-based
MOLT-4 cells = assay: MOLT-4 cell viability, CTG assay; conditions: Homo sapiens, MOLT-4, 48 h
How it was run: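 Viability read as total ATP luminescence (CTG) after 48 h compound treatment, 11 points at 5-fold spacing in triplicate, cells in RPMI 1640/10% FBS. IC50 is the concentration halving signal relative to control, four-parameter fit, averaged over at least 2 experiments.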

[1] = tested on: EBC-1 lung cancer cell line; assay: EBC-1 cell proliferation, CellTiter-Glo assay; conditions: Homo sapiens, 120 h; Ebc-1 cell viability, CTG assay, 5 days of treatment; read-out: CTG 5 day Ebc1 GI50
Experimental: (§1) The ability of the BCL-xL degrader low molecular weight compounds to inhibit cell proliferation and survival was assessed using the Promega CellTiter-Glo® proliferation assay on the EBC-1 lung cancer cell line (RCB1965, obtained from RIKEN.) The cells were cultured in media that is optimal for their growth at 5% CO2, 37° C. in a tissue culture incubator. Prior to seeding for the proliferation assay, the cells were split at least 2 days before the assay to ensure optimal growth density. On the day of seeding, cells were lifted off tissue culture flasks using 0.25% trypsin. Cell viability and cell density were determined using a cell counter (Vi-Cell XR Cell Viability Analyzer, Beckman Coulter). Cells with higher than 85% viability were seeded in white clear bottom 384-well plates (Greiner cat #781098) at a density of 1000 cells per well in 50 μL of standard growth media. Plates were incubated at 37° C. overnight in a tissue culture incubator.
The BCL-xL degrader low molecular weight compounds were prepared to desired concentrations. A series of 10 dilutions were made for each prepared compound. The prepared compounds were then added to the cells resulting in final concentrations of 0.508 nM-10 μM. An acoustic transfer device (Echo555, Beckman Coulter) was used to add the compounds to the cells. Each treatment was tested in triplicate assay plates. Plates were incubated at 37° C. overnight or for 5 days in a tissue culture incubator. The ability of the compounds to inhibit cell proliferation and survival was assessed using the Promega CellTiter-Glo® proliferation assay. Plates were incubated at room temperature for 20 minutes to stabilize luminescent signals prior to reading using a multimode plate reader (PHERAstar FSX Microplate Reader, BMG Labtech).
To evaluate the effect of the compound treatments, luminescent counts of untreated cells were taken the day after seeding (Day 0 readings), and after 5 days of treatment (Day 5 readings). The Day 5 readings of the untreated cells were compared to the Day 0 readings. Assays with at least one cell doubling during the incubation period were considered valid. To evaluate the effect of the drug treatments, luminescent counts from wells containing untreated cells (100% viability) were used to normalize treated samples. The concentrations of treatment required to inhibit 50% of cell growth or survival ([…]) were calculated using a four parameter logistic regression equation.

HiBiT-tagged BCL-xL = target: T1, HiBiT-tagged BCL-xL (Homo sapiens, UniProt Q07817); assay: NCI-H1650 BCL-xL protein levels, Nano-Glo HiBiT Lytic Detection; conditions: NCI-H1650 expressing HiBiT-tagged BCL-xL, overnight incubation, read-out: Bcl-xl HIBIT NCIH1650 DC50
T1 construct: expressed in transfected cells; host or cells: NCI-H1650 (ATCC No. CRL-5883), engineered HiBiT cell line
Experimental: as §1, with “degrade BCL-xL protein” for “inhibit cell proliferation and survival”, “Nano-Glo® HiBiT Lytic Detection System. The NCI-H1650 (ATCC No. CRL-5883) was engineered to express HiBiT-tagged BCL-xL. The NCI-H1650 HiBiT” for “CellTiter-Glo® proliferation assay on the EBC-1 lung cancer”, “was” for “(RCB1965, obtained from RIKEN.) The cells were”, “protein level” for “proliferation”, “5000” for “1000”, “30” for “50”
The BCL-xL degrader low molecular weight compounds were prepared to desired concentrations. A series of 10 dilutions were made for each prepared compound. The prepared compounds were then added to the cells resulting in final concentrations of 0.508 nM-10 μM. An acoustic transfer device (Echo555, Beckman Coulter) was used to add the compounds to the cells. Each treatment was tested in triplicate assay plates. Plates were incubated at 37° C. overnight in a tissue culture incubator.
BCL-xL degradation was assessed through the addition of 30 μL of Nano-Glo® HiBiT Lytic Reagent (Promega, cat #N3040), a reagent which lyses cells and contains a furimazine substrate and the large subunit (LgBiT) used in NanoLuc® Binary Technology. The LgBiT subunit having high affinity to a HiBiT-tagged protein will bind HiBiT, if present, resulting in complex formation of a luminescent NanoBiT® enzyme. This reaction will emit a luminescent signal proportional to the amount of HiBiT-tagged BCL-xL present in the cell lysate. Plates were incubated at room temperature for 20 minutes to stabilize luminescent signals prior to reading using a luminescence reader (PHERAstar FSX Microplate Reader, BMG Labtech).
To evaluate the effect of the drug treatments, luminescent counts from wells containing untreated cells (100% HiBiT-tagged BCL-xL) were used to normalize treated samples. The concentrations of treatment required to inhibit 50% were calculated using a four parameter logistic regression equation.

T1 sequence (Q07817 whole entry): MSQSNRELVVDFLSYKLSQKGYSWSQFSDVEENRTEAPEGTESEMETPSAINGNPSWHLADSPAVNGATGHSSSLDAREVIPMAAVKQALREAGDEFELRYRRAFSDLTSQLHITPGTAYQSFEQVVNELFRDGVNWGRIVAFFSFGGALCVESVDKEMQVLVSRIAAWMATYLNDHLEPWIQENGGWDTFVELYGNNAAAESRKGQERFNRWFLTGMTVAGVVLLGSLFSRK

SMILES | IC50 (MOLT-4 cells) [nM] | GI50 [1] [nM] | DC50 (HiBiT-tagged BCL-xL) [nM]
Cc1cc(N(CCCCN(C)C(=O)CCCCCCCCCCC(=O)N[C@H](C(=O)N2C[C@H](O)C[C@H]2C(=O)N[C@@H](C)c2ccc(-c3scnc3C)cc2)C(C)(C)C)c2ccc(-c3cnn(CC45CC6(C)CC(C)(C4)CC(OCCN(C)C)(C6)C5)c3C)c(C(=O)N(C)C)n2)nnc1Nc1nc2ccccc2s1 [Example 128, N′-[4-[[6-(1,3-benzothiazol-2-ylamino)-5-methyl-pyridazin-3-yl]-[5-[1-[[3-[2-(dimethylamino)ethoxy]-5,7-dimethyl-1-adamantyl]methyl]-5-methyl-pyrazol-4-yl]-6-(dimethylcarbamoyl)-2-pyridyl]amino]butyl]-N-[(1S)-1-[(2S,4R)-4-hydroxy-2-[[(1S)-1-[4-(4-methylthiazol-5-yl)phenyl]ethyl]carbamoyl]pyrrolidine-1-carbonyl]-2,2-dimethyl-propyl]-N′-methyl-dodecanediamide] | 67 | 869 | 18
Cc1ncsc1-c1ccc([C@H](C)NC(=O)[C@@H]2C[C@@H](O)CN2C(=O)[C@@H](NC(=O)CCCCCCCCCCCCCN(C)CCOC23CC4(C)CC(C)(CC(Cn5ncc(-c6ccc(N7CCCc8c7nnc(Nc7nc9ccccc9s7)c8C)nc6CO)c5C)(C4)C2)C3)C(C)(C)C)cc1 [Example 155, (2S,4R)-1-[(2S)-2-[14-[2-[[3-[[4-[6-[3-(1,3-benzothiazol-2-ylamino)-4-methyl-6,7-dihydro-5H-pyrido[2,3-c]pyridazin-8-yl]-2-(hydroxymethyl)-3-pyridyl]-5-methyl-pyrazol-1-yl]methyl]-5,7-dimethyl-1-adamantyl]oxy]ethyl-methyl-amino]tetradecanoylamino]-3,3-dimethyl-butanoyl]-4-hydroxy-N-[(1S)-1-[4-(4-methylthiazol-5-yl)phenyl]ethyl]pyrrolidine-2-carboxamide] | 22.1 | 431 | > 1670
Cc1ncsc1-c1ccc([C@H](C)NC(=O)[C@@H]2C[C@@H](O)CN2C(=O)[C@@H](NC(=O)C[C@H]2CC[C@H](NC(=O)c3nc(N4CCCc5c4nnc(Nc4nc6ccccc6s4)c5C)ccc3-c3cnn(CC45CC6(C)CC(C)(C4)CC(OCCN4CCCC4)(C6)C5)c3C)CC2)C(C)(C)C)cc1 [Example 164, 6-(3-(benzo[d]thiazol-2-ylamino)-4-methyl-6,7-dihydropyrido[2,3-c]pyridazin-8(5H)-yl)-3-(1-(((1r,3R,5S,7s)-3,5-dimethyl-7-(2-(pyrrolidin-1-yl)ethoxy)adamantan-1-yl)methyl)-5-methyl-1H-pyrazol-4-yl)-N-((1S,4R)-4-(2-(((S)-1-((2S,4R)-4-hydroxy-2-(((S)-1-(4-(4-methylthiazol-5-yl)phenyl)ethyl)carbamoyl)pyrrolidin-1-yl)-3,3-dimethyl-1-oxobutan-2-yl)amino)-2-oxoethyl)cyclohexyl)picolinamide] | – | 35 | 2
Cc1ncsc1-c1ccc([C@H](C)NC(=O)[C@@H]2C[C@@H](O)CN2C(=O)[C@@H](NC(=O)CCOCCOCCOCCN(C)C(=O)c2nc(N3CCCc4c3nnc(Nc3nc5ccccc5s3)c4C)ccc2-c2cnn(CC34CC5(C)CC(C)(C3)CC(OCCN3CCCC3)(C5)C4)c2C)C(C)(C)C)cc1 [Example 160, 6-(3-(benzo[d]thiazol-2-ylamino)-4-methyl-6,7-dihydropyrido[2,3-c]pyridazin-8(5H)-yl)-3-(1-(((1r,3R,5S,7s)-3,5-dimethyl-7-(2-(pyrrolidin-1-yl)ethoxy)adamantan-1-yl)methyl)-5-methyl-1H-pyrazol-4-yl)-N—((S)-14-((2S,4R)-4-hydroxy-2-(((S)-1-(4-(4-methylthiazol-5-yl)phenyl)ethyl)carbamoyl)pyrrolidine-1-carbonyl)-15,15-dimethyl-12-oxo-3,6,9-trioxa-13-azahexadecyl)-N-methylpicolinamide] | – | 58 | 2
Cc1ncsc1-c1ccc([C@H](C)NC(=O)[C@@H]2C[C@@H](O)CN2C(=O)[C@@H](NC(=O)C2CCN(C(=O)CCCCCCCCCCCN(C)CCOC34CC5(C)CC(C)(CC(Cn6ncc(-c7ccc(N8CCCc9c8nnc(Nc8nc%10ccccc%10s8)c9C)nc7C(=O)O)c6C)(C5)C3)C4)CC2)C(C)(C)C)cc1 [Example 86, 6-[3-(1,3-benzothiazol-2-ylamino)-4-methyl-6,7-dihydro-5H-pyrido[2,3-c]pyridazin-8-yl]-3-[1-[[3-[2-[[12-[4-[[(1S)-1-[(2S,4R)-4-hydroxy-2-[[(1S)-1-[4-(4-methylthiazol-5-yl)phenyl]ethyl]carbamoyl]pyrrolidine-1-carbonyl]-2,2-dimethyl-propyl]carbamoyl]-1-piperidyl]-12-oxo-dodecyl]-methyl-amino]ethoxy]-5,7-dimethyl-1-adamantyl]methyl]-5-methyl-pyrazol-4-yl]pyridine-2-carboxylic acid] | 13.7 | 18 | > 1670
Cc1ncsc1-c1ccc([C@H](C)NC(=O)[C@@H]2C[C@@H](O)CN2C(=O)[C@@H](NC(=O)CCOC2CCN(C(=O)c3nc(N4CCCc5c4nnc(Nc4nc6ccccc6s4)c5C)ccc3-c3cnn(CC45CC6(C)CC(C)(C4)CC(OCCN4CCCC4)(C6)C5)c3C)CC2)C(C)(C)C)cc1 [Example 167, (2S,4R)-1-((S)-2-(3-((1-(6-(3-(benzo[d]thiazol-2-ylamino)-4-methyl-6,7-dihydropyrido[2,3-c]pyridazin-8(5H)-yl)-3-(1-(((1r,3R,5S,7s)-3,5-dimethyl-7-(2-(pyrrolidin-1-yl)ethoxy)adamantan-1-yl)methyl)-5-methyl-1H-pyrazol-4-yl)picolinoyl)piperidin-4-yl)oxy)propanamido)-3,3-dimethylbutanoyl)-4-hydroxy-N—((S)-1-(4-(4-methylthiazol-5-yl)phenyl)ethyl)pyrrolidine-2-carboxamide] | – | 136 | 2
Cc1ncsc1-c1ccc([C@H](C)NC(=O)[C@@H]2C[C@@H](O)CN2C(=O)[C@@H](NC(=O)[C@@H]2CCCN(C(=O)c3nc(N4CCCc5c4nnc(Nc4nc6ccccc6s4)c5C)ccc3-c3cnn(CC45CC6(C)CC(C)(C4)CC(OCCN4CCCC4)(C6)C5)c3C)C2)C(C)(C)C)cc1 [Example 169, (R)-1-(6-(3-(benzo[d]thiazol-2-ylamino)-4-methyl-6,7-dihydropyrido[2,3-c]pyridazin-8(5H)-yl)-3-(1-(((1r,3R,5S,7S)-3,5-dimethyl-7-(2-(pyrrolidin-1-yl)ethoxy)adamantan-1-yl)methyl)-5-methyl-1H-pyrazol-4-yl)picolinoyl)-N—((S)-1-((2S,4R)-4-hydroxy-2-(((S)-1-(4-(4-methylthiazol-5-yl)phenyl)ethyl)carbamoyl)pyrrolidin-1-yl)-3,3-dimethyl-1-oxobutan-2-yl)piperidine-3-carboxamide] | – | 6 | > 1670

Source: patent publication US20240376094A2, “SELECTIVE BCL-XL PROTAC COMPOUNDS AND METHODS OF USE” (Les Laboratoires Servier, priority 2021, published 2024)
